Here are results for 10 molecules from PubChem BioAssay (NCI).

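In this assay, cells in 96-well plates receive the compound at five concentrations for 48 hours. Endpoints are linearly interpolated between the surrounding concentrations. At the TGI there is no net growth.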

Test systems include COLO 205 colon; DMS 114 small cell lung; DMS 273 small cell lung; HCC-2998 colon; HOP-62 NSCLC; KM20L2 colon; LOX IMVI melanoma; M19-MEL melanoma; MOLT-4 leukemia; OVCAR-4 ovarian; P388 leukemia; P388/ADR leukemia; SF-295 CNS; SN12K1 renal; SNB-19 CNS; M14 melanoma; DU-145 prostate; MDA-MB-231 breast; MDA-N; T-47D breast.
Experiment in all cases: NCI tumour cell line growth inhibition, 48 h

Turning to `S=P1(Sc2ccccc2)Oc2ccc3ccccc3c2-c2c(ccc3ccccc23)O1`, the TGI in the assay on COLO 205 colon, in the assay with DMS 114 small cell lung, in the assay on DMS 273 small cell lung, in the assay on HCC-2998 colon, in the assay with HOP-62 NSCLC and in the assay on KM20L2 colon was over 100 µM each time. Moreover, the TGI in the assay on LOX IMVI melanoma, with M19-MEL melanoma, in the assay with MOLT-4 leukemia, in the assay on OVCAR-4 ovarian, in the assay with P388 leukemia and in the assay on P388/ADR leukemia was over 100 µM in each case. Moreover, the TGI in the assay on SF-295 CNS, with SN12K1 renal and with SNB-19 CNS was over 100 µM throughout.
Consider `c1ccc2c3c(ccc2c1)-c1[nH]ncc1CCO3`, for which the TGI with COLO 205 colon was 99.7 µM; with DMS 114 small cell lung, over 82.4 µM; with DMS 273 small cell lung, over 100 µM; with HCC-2998 colon, over 100 µM; in the assay with HOP-62 NSCLC, over 91.9 µM; with KM20L2 colon, over 95.1 µM. Besides, the TGI is over 93.6 µM with LOX IMVI melanoma; over 100 µM with M19-MEL melanoma; 77.5 µM in the assay on MOLT-4 leukemia; over 84.9 µM with OVCAR-4 ovarian; over 100 µM in the assay with P388 leukemia; over 100 µM in the assay with P388/ADR leukemia. For the same molecule, the TGI in the assay with SF-295 CNS was over 86.1 µM; in the assay with SN12K1 renal, over 79.8 µM; in the assay on SNB-19 CNS, over 100 µM.
Turning to `CC(C)(C)c1ccc2c(c1)OP1(Oc3c(Cl)cc(Cl)c4cccnc34)(O2)Oc2ccc(C(C)(C)C)cc2O1`, the TGI came out at 31.3 µM with COLO 205 colon; 9.57 µM with DMS 114 small cell lung; 18.3 µM in the assay with DMS 273 small cell lung; 23.4 µM with HCC-2998 colon; 20 µM in the assay on HOP-62 NSCLC; 14.6 µM with KM20L2 colon. The TGI with LOX IMVI melanoma came to 19.2 µM; with MOLT-4 leukemia it was 18.7 µM; in the assay on OVCAR-4 ovarian it was 23.3 µM; in the assay with P388 leukemia, 2.61 µM; in the assay with P388/ADR leukemia, 9.93 µM; in the assay on SF-295 CNS it was 32.1 µM. In addition, the results for the TGI in the assay on SN12K1 renal and in the assay on SNB-19 CNS were 19.6 µM and 22.8 µM, respectively.
For `O=C1c2ccccc2N(O)C1(c1ccccc1)C1CCCC=C1N1CCOCC1` (stereo unspecified), the TGI in the assay with COLO 205 colon, in the assay on DMS 114 small cell lung, in the assay on DMS 273 small cell lung, in the assay on HCC-2998 colon, in the assay with HOP-62 NSCLC and with KM20L2 colon was over 100 µM throughout. Further, the TGI with LOX IMVI melanoma, with M14 melanoma, in the assay on M19-MEL melanoma, in the assay on MOLT-4 leukemia, in the assay with SF-295 CNS and in the assay on SNB-19 CNS was over 100 µM each time.
For `Cc1ncn(-c2ccccc2O)c1C`, the TGI in the assay with COLO 205 colon, in the assay with DU-145 prostate, with HOP-62 NSCLC, in the assay with LOX IMVI melanoma, in the assay on M14 melanoma and with MDA-MB-231 breast was over 100 µM in each case. Besides, the TGI in the assay with MDA-N, in the assay with MOLT-4 leukemia, with OVCAR-4 ovarian, in the assay with SF-295 CNS, in the assay on SNB-19 CNS and in the assay with T-47D breast was over 100 µM throughout.
For the molecule `CN(C)Cc1cc(Cl)c(O)c(CN(C)C)c1`, the TGI with COLO 205 colon, with DU-145 prostate, with HCC-2998 colon, in the assay on HOP-62 NSCLC, with LOX IMVI melanoma and with M14 melanoma was over 100 µM throughout. For the same molecule, the TGI in the assay on MDA-MB-231 breast, in the assay on MDA-N, with OVCAR-4 ovarian, in the assay with SF-295 CNS, with SNB-19 CNS and with T-47D breast was over 100 µM in each case.
As for `COc1c2c(c3c(c1OC)c(=O)c1ccccc1n3C)OCO2`, the TGI in the assay on COLO 205 colon, in the assay with DU-145 prostate, with HCC-2998 colon, with HOP-62 NSCLC, in the assay with LOX IMVI melanoma and in the assay with M14 melanoma was over 100 µM throughout. Further, the TGI in the assay on MDA-MB-231 breast, in the assay with MDA-N, in the assay on MOLT-4 leukemia, with OVCAR-4 ovarian, with SF-295 CNS and with SNB-19 CNS was over 100 µM in each case. In the assay on T-47D breast, this molecule showed a TGI of over 100 µM.
On to `C=C(/C=C/C=C(\C)CCC=C(C)C)[C@@H]1CC[C@]2([C@H](CCCO)/C(=C(/C)C=O)CC[C@]2(C)O)[C@@H]1O`, for which the TGI in the assay on COLO 205 colon is 26 µM; in the assay with DMS 273 small cell lung it was 27.9 µM; in the assay with HCC-2998 colon, 35.6 µM; in the assay with KM20L2 colon, over 100 µM; in the assay with LOX IMVI melanoma, 31.9 µM; in the assay with M14 melanoma it was 48.2 µM. The values for the TGI in the assay on MOLT-4 leukemia, with SF-295 CNS and in the assay on SNB-19 CNS were 29.3 µM, 44 µM and 52.7 µM, respectively.
In the case of `Cc1cn(C2CC(n3cc(Cn4ccc(=O)[nH]c4=O)nn3)C(CO)O2)c(=O)[nH]c1=O` (stereo unspecified), the TGI in the assay on COLO 205 colon, in the assay on DU-145 prostate, in the assay on HCC-2998 colon, with HOP-62 NSCLC, with M14 melanoma and in the assay with MDA-MB-231 breast was over 100 µM in each case. For the same molecule, the TGI in the assay on MDA-N, with MOLT-4 leukemia, with OVCAR-4 ovarian, in the assay with SF-295 CNS, with SNB-19 CNS and in the assay on T-47D breast was over 100 µM throughout.
On to `COc1ccc(C2CC(c3c(O)ccc4ccccc34)=NN2)cc1OC` (stereo unspecified), for which the TGI is 46.5 µM with COLO 205 colon; 36.1 µM in the assay with DU-145 prostate; 6.15 µM in the assay with HCC-2998 colon; 17.5 µM in the assay on HOP-62 NSCLC; 17.3 µM in the assay on M14 melanoma; 53.4 µM in the assay with MDA-MB-231 breast. Further, the TGI in the assay on MDA-N turned out to be 22.8 µM; in the assay on MOLT-4 leukemia, 5.44 µM; in the assay with OVCAR-4 ovarian it was 20.8 µM; with SF-295 CNS it was 17.6 µM; in the assay with SNB-19 CNS, 6.34 µM; in the assay with T-47D breast, 58.2 µM.
